Like-named read-outs stand apart in the source and are kept apart here.
Legend:
[1] = Liver microsomal metabolic stability, rat liver microsomes (RLM); settings: rat, liver microsomes, t1/2 (min) in RLM, 1 μM compound, 1 mg/mL microsomes, NADPH
[2] = Liver microsomal metabolic stability, human liver microsomes (HLM); settings: human, liver microsomes
[3] = target: USP1/UAF1 enzyme (Homo sapiens, UniProt O94782); experiment: USP1/UAF1 deubiquitination assay (ubiquitin-rhodamine 110 substrate); assay type: biochemical; settings: read-out: USP1 IC50 (Ub-Rho)
Method in brief: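 0.05 nM USP1/UAF1 was preincubated 10 min with compounds (dose response from 10 μM) in 50 mM Tris-HCl pH 7.8, 0.5 mM EDTA, 0.01% BSA, 1 mM DTT, 0.01% Tween-20. 150 nM ubiquitin-rhodamine 110 started the reaction, read kinetically 30 min at Ex480/Em540; IC50 by four-parameter fit versus no-enzyme and DMSO controls.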

[4] = ADME solubility determination in PBS at pH 2.0 and pH 7.4; assay type: physicochemical; settings: phosphate buffered saline, 25 °C, thermodynamic from solid
Method: Certain Compounds of the Disclosure were assessed for ADME solubility at pH 2.0 and pH 7.4.
Stock solutions were prepared by adding each compound to DMSO at a concentration of 10 mM. Samples were prepared by adding 50 μL of each stock solution to separate vials. The vials were loaded onto a 96-well rack and dried. 500 μL of Phosphate Buffered Saline (PBS) pH 7.4 or PBS pH 2.0 were added into each vial. The vials were then shaken at 25° C. and 1,100 rpm for 24 hours.
After 24 hours, the vials were centrifuged at 3220 G and 25° C. for 30 minutes. The supernatant fluid was analyzed by LC-MS/MS against a standard of known concentration. The solubility of each sample was then calculated using the equation below: […]
where DF is the dilution factor.

[5] = pH 2, aqueous buffer, PBS pH 2.0, 25° C., read-out: Solubility at pH 2.0
[6] = pH 7.4, aqueous buffer, PBS pH 7.4, 25° C., read-out: Solubility at pH 7.4

Sequence of USP1/UAF1 enzyme (O94782 whole entry): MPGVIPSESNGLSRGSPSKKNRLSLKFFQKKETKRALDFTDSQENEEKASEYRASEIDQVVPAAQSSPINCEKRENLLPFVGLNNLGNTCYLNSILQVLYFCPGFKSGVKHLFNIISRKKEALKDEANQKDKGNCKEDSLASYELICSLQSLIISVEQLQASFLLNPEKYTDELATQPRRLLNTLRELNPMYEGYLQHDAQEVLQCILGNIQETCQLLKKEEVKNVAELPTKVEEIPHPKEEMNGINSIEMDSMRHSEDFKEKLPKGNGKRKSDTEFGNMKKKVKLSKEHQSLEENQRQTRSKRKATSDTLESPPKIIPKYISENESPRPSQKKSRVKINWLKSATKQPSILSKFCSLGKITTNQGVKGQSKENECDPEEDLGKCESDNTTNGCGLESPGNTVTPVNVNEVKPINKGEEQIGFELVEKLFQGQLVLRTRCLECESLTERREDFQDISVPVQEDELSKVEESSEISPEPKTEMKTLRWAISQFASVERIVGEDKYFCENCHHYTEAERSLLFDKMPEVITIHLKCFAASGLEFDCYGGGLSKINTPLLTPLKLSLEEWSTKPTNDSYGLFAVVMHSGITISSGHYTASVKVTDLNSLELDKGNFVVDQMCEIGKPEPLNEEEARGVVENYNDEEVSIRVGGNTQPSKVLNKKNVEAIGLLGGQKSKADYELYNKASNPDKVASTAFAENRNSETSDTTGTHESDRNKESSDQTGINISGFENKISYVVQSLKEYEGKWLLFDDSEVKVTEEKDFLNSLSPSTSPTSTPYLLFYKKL
Sequence of USP1/UAF1 enzyme (Q8TAF3 whole entry partner): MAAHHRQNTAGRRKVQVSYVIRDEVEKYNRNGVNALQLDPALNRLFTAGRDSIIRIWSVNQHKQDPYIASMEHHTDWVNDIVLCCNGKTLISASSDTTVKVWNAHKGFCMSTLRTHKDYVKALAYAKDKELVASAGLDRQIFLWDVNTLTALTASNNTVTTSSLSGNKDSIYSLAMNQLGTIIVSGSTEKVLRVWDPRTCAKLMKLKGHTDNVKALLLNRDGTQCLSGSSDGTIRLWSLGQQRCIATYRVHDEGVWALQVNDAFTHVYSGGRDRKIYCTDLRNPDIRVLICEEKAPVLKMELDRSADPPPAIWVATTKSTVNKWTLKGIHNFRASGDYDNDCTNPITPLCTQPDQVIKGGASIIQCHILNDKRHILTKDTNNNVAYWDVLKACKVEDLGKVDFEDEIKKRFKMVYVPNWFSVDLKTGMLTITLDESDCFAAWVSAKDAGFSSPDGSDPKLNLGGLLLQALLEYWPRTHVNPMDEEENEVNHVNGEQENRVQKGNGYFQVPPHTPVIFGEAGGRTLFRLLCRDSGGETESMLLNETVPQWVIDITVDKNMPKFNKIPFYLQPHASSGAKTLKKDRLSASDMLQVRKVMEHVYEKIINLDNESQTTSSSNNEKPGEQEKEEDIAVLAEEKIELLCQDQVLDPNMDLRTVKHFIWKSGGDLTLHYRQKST

Row | half-life at 1 μM [1] [min] | half-life at 1 μM [2] [min] | IC50 [3] [nM] | solubility at 24 h [4, 5] [µM] | solubility at 24 h [4, 6] [µM] | Compound
1 | > 25 | > 25 | 100 to 500 | < 10 | < 10 | CCn1cc(C(F)(F)F)nc1-c1ccc(NC2CCCn3nc(-c4c(Cl)cnn4C(C)C)nc32)cc1F (centres unmarked) [Example 257, 2-(4-chloro-1-isopropyl-1H-pyrazol-5-yl)-N-(4-(1-ethyl-4-(trifluoromethyl)-1H-imidazol-2-yl)-3-fluorophenyl)-5,6,7,8-tetrahydro-[1,2,4]triazolo[1,5-a]pyridin-8-amine]
2 | < 25 | < 25 | < 100 | ≥ 10 | < 10 | COc1cccnc1-c1ccc(CN2C(=O)CCn3nc(-c4c(Cl)cnn4C(C)C)cc32)cc1Cl [Example 288]
3 | < 25 | < 25 | < 100 | ≥ 10 | < 10 | CC(C)Oc1cccnc1-c1ccc(CN2C(=O)CCn3nc(-c4c(Cl)cnn4C(C)C)cc32)cc1Cl [Example 310]
4 | < 25 | < 25 | < 100 | ≥ 10 | < 10 | CC(C)n1ncc(Cl)c1-c1cc2n(n1)CCC(=O)N2Cc1ccc(-c2ncccc2N(C)C)c(Cl)c1 [Example 312]
5 | > 25 | > 25 | 100 to 500 | ≥ 10 | < 10 | CCn1cc(C(F)(F)F)nc1-c1ccc(CN2C(=O)CCn3nc(-c4c(C(F)F)cnn4C(C)C)cc32)cc1F [Example 328, 2-(4-(difluoromethyl)-1-isopropyl-1H-pyrazol-5-yl)-4-(4-(1-ethyl-4-(trifluoromethyl)-1H-imidazol-2-yl)-3-fluorobenzyl)-6,7-dihydropyrazolo[1,5-α]pyrimidin-5(4H)-one]
6 | > 25 | > 25 | < 100 | ≥ 10 | ≥ 10 | CCn1cc(C(F)(F)F)nc1-c1ccc([C@@H](C)n2c(=O)ccn3nc(-c4c(OC)ncnc4C4CC4)nc23)cc1F [Example 341, (R)-2-(4-cyclopropyl-6-methoxypyrimidin-5-yl)-4-(1-(4-(1-ethyl-4-(trifluoromethyl)-1H-imidazol-2-yl)-3-fluorophenyl)ethyl)-[1,2,4]triazolo[1,5-a]pyrimidin-5(4H)-one]
7 | > 25 | > 25 | < 100 | ≥ 10 | ≥ 10 | CCn1cc(C(F)(F)F)nc1-c1ccc([C@H](C)n2c(=O)ccn3nc(-c4c(OC)ncnc4C4CC4)nc23)cc1F [Example 342, (S)-2-(4-cyclopropyl-6-methoxypyrimidin-5-yl)-4-(1-(4-(1-ethyl-4-(trifluoromethyl)-1H-imidazol-2-yl)-3-fluorophenyl)ethyl)-[1,2,4]triazolo[1,5-a]pyrimidin-5(4H)-one]
